Here are results for one molecule from ChEMBL document CHEMBL3886982, “Substituted bicyclic dihydropyrimidinones and their use as inhibitors of neutrophil elastase activity” (2016).

The target in this test is T1, Neutrophil elastase (Homo sapiens, UniProt P08246).
T1 sequence (P08246 whole entry): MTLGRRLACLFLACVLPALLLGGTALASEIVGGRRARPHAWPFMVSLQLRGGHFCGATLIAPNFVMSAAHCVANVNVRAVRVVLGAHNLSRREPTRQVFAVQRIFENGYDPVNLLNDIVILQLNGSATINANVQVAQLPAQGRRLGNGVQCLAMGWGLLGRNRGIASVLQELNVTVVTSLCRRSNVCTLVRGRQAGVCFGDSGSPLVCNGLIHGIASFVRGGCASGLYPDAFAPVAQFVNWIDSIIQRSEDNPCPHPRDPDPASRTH
Kind of test: Human Neutrophil Elastase Assay: The following buffers were used: Compound buffer: 100 mM Tris, 500 mM NaCl, adjusted to pH 7.5; Assay buffer: 100 mM Tris, 500 mM NaCl, adjusted to pH 7.5, containing 0.01% BSA.Assay conditions: Test compounds were prediluted in DMSO and subsequently in compound buffer (5% DMSO final). 5 μL of these compound dilutions were mixed with 10 μl Neutrophil elastase ….

Molecules are shown by their SMILES.

Description: Human Neutrophil Elastase Assay: The following buffers were used: Compound buffer: 100 mM Tris, 500 mM NaCl, adjusted to pH 7.5; Assay buffer: 100 mM Tris, 500 mM NaCl, adjusted to pH 7.5, containing 0.01% BSA.Assay conditions: Test compounds were prediluted in DMSO and subsequently in compound buffer (5% DMSO final). […] After inactivation of the enzyme, fluorescence intensities were measured at 380 nm excitation and 460 nm emission wavelengths.

For `CN1C(=O)N(c2cccc(C(F)(F)F)c2)C2=C(C(=O)CC2)C1c1ccc(C#N)cc1-c1ccnn1C` (stereo unspecified), the half-maximal inhibitory concentration (IC50) is 7.3 nM.
